Read-outs that look alike come from different tables or passages of the source.

The values below come from patent publication US9504729B2, “Antiangiogenic small molecules and methods of use” (The United States of America, as represented by the …, priority 2009, dated 2016).

Series [1] has as its system PAE cells. The series is described as follows: Growth dose response (IC50) in PAE. The format is cell-based, porcine. As to conditions: read-out: Growth IC50 (M) in PAE. The text has this:
FIG. 6: Dose response curves were constructed for all the SMs of interest using PAE cells. Data were fitted to non-linear sigmoid curves using GraphPad Prism (GraphPad Software, Inc., La Jolla, Calif.).
Dose response curves were constructed for all the SM of interest using PAE cells. Data were fitted to non-linear sigmoid curves using GraphPad Prism (GraphPad software, Inc.).

For another series, the system named is endothelial cells. The series is described as follows: Primary screening: cell-based growth HTS and tube formation HTS (bioactivity class).
The test system of series [2] is PAE cells.
A further series has as its system PAE. The series is described as follows: Apoptosis in PAE. The class given is cell-based, porcine.
The subject of series [3] is PAE cells. The series is described as follows: Fluorescence-release cytotoxicity assay. The conditions noted are these: endothelial cells.
The next series in a line: in vitro. As to conditions: pig.
Series [4] concerns SK-ML-1 tumors. The series is described as follows: SK-ML-1 tumor xenograft. The conditions noted are these: 100 μl of 10 μM IP, three times a week for four weeks.
The next series has as its target KDR(VEGFR2) (Homo sapiens, UniProt P35968). The series is described as follows: SelectScreen kinase activity profiling, KDR(VEGFR2). The format is biochemical. As to conditions: VEGFR2 receptor.
The subject of a further series is A549 tumors. The conditions noted are these: positive control; cited from earlier work.
Series [5] deals with SK-ML-1 tumors. As to conditions: positive control; cited from earlier work.
[6] abbreviates: HTS at 1 μM final concentration.

Sequence of KDR(VEGFR2) (P35968 20-1356): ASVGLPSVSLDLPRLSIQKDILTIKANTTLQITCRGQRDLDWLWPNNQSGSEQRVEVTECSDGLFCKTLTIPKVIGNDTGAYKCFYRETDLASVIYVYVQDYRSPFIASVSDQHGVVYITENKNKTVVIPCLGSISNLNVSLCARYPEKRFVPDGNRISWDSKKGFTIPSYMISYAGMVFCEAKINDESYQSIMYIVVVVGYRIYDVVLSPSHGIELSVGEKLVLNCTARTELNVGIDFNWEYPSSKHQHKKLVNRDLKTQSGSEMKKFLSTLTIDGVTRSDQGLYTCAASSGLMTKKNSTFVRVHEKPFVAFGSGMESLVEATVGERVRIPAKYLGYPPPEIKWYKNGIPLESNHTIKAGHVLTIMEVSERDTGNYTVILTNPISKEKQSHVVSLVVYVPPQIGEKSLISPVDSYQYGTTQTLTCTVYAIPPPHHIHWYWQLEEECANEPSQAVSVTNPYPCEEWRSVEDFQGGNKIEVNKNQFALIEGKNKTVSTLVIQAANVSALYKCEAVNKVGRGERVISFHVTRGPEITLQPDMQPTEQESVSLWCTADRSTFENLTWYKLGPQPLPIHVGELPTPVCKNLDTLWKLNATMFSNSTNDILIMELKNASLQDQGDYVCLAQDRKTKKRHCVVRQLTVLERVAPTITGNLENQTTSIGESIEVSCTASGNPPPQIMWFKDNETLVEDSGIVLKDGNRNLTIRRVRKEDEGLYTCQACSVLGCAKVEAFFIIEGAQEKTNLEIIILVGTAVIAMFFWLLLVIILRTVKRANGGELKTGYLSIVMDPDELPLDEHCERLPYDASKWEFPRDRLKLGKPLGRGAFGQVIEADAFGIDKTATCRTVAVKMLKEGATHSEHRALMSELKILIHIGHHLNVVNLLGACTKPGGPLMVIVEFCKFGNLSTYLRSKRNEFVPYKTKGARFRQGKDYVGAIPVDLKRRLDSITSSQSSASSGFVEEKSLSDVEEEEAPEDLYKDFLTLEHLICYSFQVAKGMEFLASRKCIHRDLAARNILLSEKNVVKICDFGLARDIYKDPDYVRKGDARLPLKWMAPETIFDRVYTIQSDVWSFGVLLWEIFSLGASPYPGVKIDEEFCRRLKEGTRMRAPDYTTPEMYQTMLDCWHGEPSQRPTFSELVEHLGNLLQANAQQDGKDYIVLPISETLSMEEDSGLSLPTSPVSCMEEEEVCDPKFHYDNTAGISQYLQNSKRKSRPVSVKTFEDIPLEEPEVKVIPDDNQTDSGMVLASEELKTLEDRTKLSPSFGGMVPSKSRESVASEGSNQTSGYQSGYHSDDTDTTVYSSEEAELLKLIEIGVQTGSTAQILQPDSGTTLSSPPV
Experimental for endothelial cells: All assays were performed in clear bottom black 96-well plates. The plates were always arranged to include a column for negative controls (column 1), a column for positive controls (column 12), and 10 columns for evaluation of 80 compounds. In order to increase stringency and avoid false positives in the HTS assays, all compounds were tested at a low final concentration of 1 μM.
In summary, 1,000 cells/well were seeded in the 96-well plates described above. Cells in columns 2-12 were seeded in 10% FBS and cells in column 1 (negative control) were seeded in 0% FBS. Small molecules (80 per plate) were added in columns 2-11 at a final concentration of 1 μM (both positive and negative controls were exposed to the same percentage of DMSO in wells containing test compounds). The fluorescence emitted by every well was measured spectrophotometrically (Infinite M200, TECAN®, Mannedorf, Switzerland) every 24 hours for 5-7 days.
In summary, 20,000 cells/well were seeded on top of 50 μl of pre-gelled GELTREX® gel matrix (Invitrogen, Carlsbad, Calif.). All cells were seeded in 10% FBS. […] Small molecules (80 per plate) were added to columns 2-11 at a final concentration of 1 μM (both positive and negative controls were exposed to the same percentage of DMSO in wells containing test compounds). Plates were incubated for 5-7 hours and automatically imaged with the help of an epifluorescence microscope (Axiovert® 200M, Zeiss) equipped with a motorized stage and AxioVision® (Zeiss) software.
For hit detection, a stringent threshold (sigma 3.5) was applied to avoid false positives.

The term IC50 denotes the point on the concentration scale where inhibition reaches its midpoint. For the molecule “2,5-dibromo-3,6-dimethylbenzene-1,4- diol; 2,5-dibromo-3,6- dimethylcyclohexa-2,5-diene-1,4-dione [Compound 72]”, in the series on PAE cells [1], the concentration for half-maximal inhibition (IC50) was found to be 1.39e-10 M. Besides, the Bioactivity in the series on endothelial cells was determined as 3. Further, the “Cytotoxicity (%)” value in the series with PAE cells [2] came to 13.88%. Besides, the “Apoptosis PAE (RFU)” value in the series on PAE was found to be 1.368 RFU.
As for `CC1(C)N=C(N)N=C(N)N1CCCCc1ccccc1.Cl` [Compound 11, 6,6-dimethyl-1-(4-phenylbutyl)-1,3,5-triazine-2,4-diamine hydrochloride], the “cytotoxicity (in words)” value in the series on PAE cells [3] is “cytotoxic”. Also, the IC50 in the series on PAE cells [1] (Sus scrofa, PAE cells) is 2.37e-11 M. The molecule further yielded a cytotoxicity in “in vitro” of 18.7%.
On to `COc1ccc(CC2C(=O)NC(C)C(=O)N(C)C3Cc4ccc(cc4)Oc4cc(ccc4O)CC(C(=O)NC(C)C(=O)NC(C)C(=O)N2C)N(C)C3=O)cc1` (centres unmarked) [Compound 58, Deoxybouvardin or 24-hydroxy-10-(4-methoxybenzyl)-4,7,9,13,15,29-hexamethyl-22-oxa-3,6,9,12,15,29-hexaazatetracyclo-[14.12.2.2~18,21~.1~23,27~]tritriaconta-18,20,23(31),24,26,32-hexaene-2,5,8,11,14,30-hexone], for which, in the series with SK-ML-1 tumors [4], the “inhibition of tumor growth, SK-ML-1 xenograft” value (“inhibition of tumor growth” for short) is “potencies similar to AVASTIN®”. The “type of inhibition (endothelial cell growth and/or tube formation)” value (“type of inhibition” for short) with endothelial cells is given as “tube formation”. Further, the cytotoxicity in “in vitro” turned out to be 11.2%.
As to `COc1ccc(CC2C(=O)NC(C)C(=O)N(C)C3C(=O)N(C)C(Cc4ccc(O)c(c4)Oc4ccc(cc4)C3O)C(=O)NC(C)C(=O)NC(C)C(=O)N2C)cc1` (centres unmarked) [Compound 59, Bouvardin or 17,24-dihydroxy-10-(4-methoxybenzyl)-4,7,9,13,15,29-hexamethyl-22-oxa-3,6,9,12,15,29-hexaazatetracyclo-[14.12.2.2-18,21~.1~23,27~]tritriaconta-18,20,23(31),24,26,32-hexaene-2,5,8,11,14,30-hexone], the Bioactivity in the series on endothelial cells is on record as 2. The “Cytotoxicity (%)” value in the series with PAE cells [2] came out at 9.794%. Also, in the series on PAE, the “Apoptosis PAE (RFU)” value came out at 6.215 RFU.
On to `COc1ccc(-c2csc3c2-n2cccc2C3=O)cc1` [Compound 63, 3-(4-methoxyphenyl)thieno[2,3-b]pyrrolizin-8-one], for which the “cytotoxicity (in words)” value with PAE cells [3] is given as “without cytotoxicity”. Further, in the series on PAE cells [1] (Sus scrofa, PAE cells), the IC50 turned out to be 1.55e-11 M. Further, the “type of inhibition” value with endothelial cells (1 μM) is “inhibited both endothelial cell growth and tube formation”. For the same molecule, the cytotoxicity in the series “in vitro” worked out at 7.48%.
`O=[N+]([O-])c1ccc(S(=O)(=O)Cc2ccccc2)c([N+](=O)[O-])c1` [Compound 64, 1-benzylsulfonyl-2,4-dinitrobenzene]: the IC50 in the series with PAE cells [1] (Sus scrofa, PAE cells) came to 2.79e-10 M. For the same molecule, the “type of inhibition” value was “inhibited both endothelial cell growth and tube formation” with endothelial cells (1 μM); “tube formation+growth” in the series with endothelial cells (1 μM, listed as NSC 122657). The “cytotoxicity (in words)” value in the series on PAE cells [2] was “without cytotoxicity”. The cytotoxicity in the series “in vitro” was 7.09%.
As to `Cl.O=C1C(=Cc2ccccc2)C(NC2CCCCC2)c2ccccc21` (centres unmarked) [Compound 67, 2-benzylidene-3-(cyclohexylamino)-3H-inden-1-one chloride], in the series on PAE cells [3], the “cytotoxicity (in words)” value is on record as “without cytotoxicity”. The “inhibition of tumor growth” value with SK-ML-1 tumors [4] is listed as “potencies similar to AVASTIN®”. The IC50 with PAE cells [1] (Sus scrofa, PAE cells) was found to be 9.16e-11 M. Also, the “type of inhibition” value was “inhibited both endothelial cell growth and tube formation” in the series on endothelial cells (1 μM); “tube formation+growth” in the series with endothelial cells (1 μM, listed as NSC 150117). In the series “in vitro”, this molecule showed a cytotoxicity of 7.78%.
For the molecule `O=C(c1no[n+]([O-])c1C(=O)c1csc2ccccc12)c1csc2ccccc12` [Compound 68, [4-(1-benzothiophene-3-carbonyl)-2-oxido-1,2,5-oxadiazol-2-ium-3-yl]-(1-benzothiophen-3-yl)methanone], in the series with PAE cells [3], the “cytotoxicity (in words)” value is reported as “cytotoxic”. The IC50 with PAE cells [1] (Sus scrofa, PAE cells) was 1.4e-10 M. This molecule also came in with a cytotoxicity in “in vitro” of 19.1%.
`O=[As](O)(O)c1ccc(Cc2ccc([As](=O)(O)O)cc2)cc1` [Compound 69, [4-[(4-arsonophenyl)methyl]phenyl]arsonic acid]: the “inhibition of tumor growth” value in the series on SK-ML-1 tumors [4] was “potencies similar to AVASTIN®”. Further, at KDR(VEGFR2), the “RTK inhibitory activity (in words)” value is listed as “showed RTK inhibitory activity”. Further, in the series with PAE cells [1] (Sus scrofa, PAE), the IC50 amounted to 3.84e-10 M. For the same molecule, in the series on endothelial cells, the “type of inhibition” value is “inhibited both endothelial cell growth and tube formation”. Further, the “cytotoxicity (in words)” value in the series with PAE cells [2] is listed as “without cytotoxicity”. The molecule further had a cytotoxicity in the series “in vitro” of 8.26%.
“AVASTIN®: monoclonal antibody directed against an isoform of VEGF, marketed under the trade name Avastin®; known antiangiogenic drug, positive control”: the “inhibition of growth of A549 (previously shown)” value in the series on A549 tumors is listed as “significantly inhibit”. For the same molecule, the “inhibition of growth of SK-ML-1 (previously shown)” value with SK-ML-1 tumors [5] is given as “significantly inhibit”.
As for “[benzylsulfanyl(sulfoniumylidene) methyl]-(1-pyridin-2- ylethylideneamino)azanide; chlorocopper [Compound 65]”, in the series on PAE cells [1] (PAE cells), the 50% inhibitory concentration (IC50) was determined as 1.09e-11 M. This molecule also came in with a Bioactivity with endothelial cells (setting [6]) of 3. In the series on PAE (PAE cells), the “Apoptosis PAE (RFU)” value worked out at 2.227 RFU.
On to “bromocopper; (dipyridin-2- ylmethylideneamino)- [methylsulfanyl(sulfoniumylidene) methyl]azanide [Compound 70]”, for which, in the series on PAE cells [3], the “cytotoxicity (in words)” value was “cytotoxic”. The IC50 with PAE cells [1] (PAE cells) was found to be 6.11e-12 M. This molecule also displayed a Bioactivity in the series on endothelial cells (setting [6]) of 3. Further, the “Cytotoxicity (%)” value in the series on PAE cells [2] came out at 38.53%. Further, the “Apoptosis PAE (RFU)” value in the series on PAE (PAE cells) was determined as 1.021 RFU.
Turning to “zinc; 8-hydroxy-3,4,4a,5,6,7,8,8a- octahydro-2H-quinolin-1-ide-5-sulfonic acid; 5-sulfo-1,2-dihydroquinolin-8-olate [Compound 61]”, the Bioactivity with endothelial cells was 2. Also, the “Cytotoxicity (%)” value in the series on PAE cells [2] is 7.901%. Also, the “Apoptosis PAE (RFU)” value in the series with PAE was 1.841 RFU.
